Reference: PubChem BioAssay (NCI)
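Following 48 hours of exposure in 96-well plates, responses at five concentrations were used to interpolate endpoints linearly. GI50 = concentration required for 50% inhibition of growth. At the TGI there is no net growth.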

Columns and labels:
Experiment in all cases: NCI anticancer screen, dose series, 48 h
OVCAR-4 ovarian = system: OVCAR-4 ovarian
U251 CNS = system: U251 CNS
KM12 colon = system: KM12 colon
DU-145 prostate = system: DU-145 prostate
786-0 renal = system: 786-0 renal
SR leukemia = system: SR leukemia
SF-268 CNS = system: SF-268 CNS
SF-539 CNS = system: SF-539 CNS
UO-31 renal = system: UO-31 renal
BT-549 breast = system: BT-549 breast

SMILES | GI50 (OVCAR-4 ovarian) [µM] | TGI (OVCAR-4 ovarian) [µM] | GI50 (U251 CNS) [µM] | TGI (U251 CNS) [µM] | GI50 (KM12 colon) [µM] | TGI (KM12 colon) [µM] | GI50 (DU-145 prostate) [µM] | TGI (DU-145 prostate) [µM] | GI50 (786-0 renal) [µM] | TGI (786-0 renal) [µM] | GI50 (SR leukemia) [µM] | TGI (SR leukemia) [µM] | GI50 (SF-268 CNS) [µM] | TGI (SF-268 CNS) [µM] | GI50 (SF-539 CNS) [µM] | TGI (SF-539 CNS) [µM] | GI50 (UO-31 renal) [µM] | TGI (UO-31 renal) [µM] | GI50 (BT-549 breast) [µM] | TGI (BT-549 breast) [µM]
COc1cc(NC(=O)CCSc2nc3ccc(C)cc3c(=O)n2Cc2ccccc2)cc(OC)c1OC | 3.95 | > 100 | 7.06 | 63.1 | > 100 | > 100 | 66 | > 100 | 4.17 | 19.2 | > 100 | > 100 | 4.22 | 49.6 | 2.5 | 7.26 | 11.6 | > 100 | 5.02 | > 100
Cc1nn2c(/C=C3/C(=O)Nc4cc(Cl)ccc43)c(-c3ccccc3)nc2s1 | 1.59 | 3.39 | 2.68 | 8.5 | 59.1 | > 100 | 4.02 | 18.2 | 2.15 | 4.37 | 3.09 | > 100 | 6.81 | > 100 | 1.71 | 3.46 | 1.59 | 3.53 | 6.63 | > 100
COc1cc2c(cc1OC)C(=O)/C(=C/c1cc(-c3ccc4c(c3)OCO4)n[nH]1)C2 | 1.11 | 2.36 | 1.09 | 2.31 | 1.29 | 2.73 | 1.45 | 2.86 | 1.61 | 2.99 | 0.627 | 4.11 | 1.63 | 3.37 | 1.27 | 2.57 | 1.29 | 2.67 | 1.62 | 3.04
O=C(Oc1ccc(CO[N+](=O)[O-])cc1)c1ccccc1 | 0.18 | 0.381 | 0.145 | 0.276 | 0.163 | 0.33 | 0.289 | 0.818 | 0.0945 | 0.235 | 0.115 | 0.542 | 0.167 | 0.317 | 0.153 | 0.287 | 0.172 | 0.322 | 0.139 | 0.27
Cn1cc(-c2ccc3nnc(Sc4ccc5ncccc5c4)n3n2)cn1 | > 100 | > 100 | 28.5 | > 100 | > 100 | > 100 | 73.3 | > 100 | > 100 | > 100 | 68.1 | > 100 | 60.2 | > 100 | > 93.4 | > 100 | 61.9 | > 100 | 48.7 | > 100
O=C1/C(=C/c2ccccc2)CN(C(=O)CCN2CCCC2)C/C1=C\c1ccccc1 | – | 4.78 | – | 2.51 | – | 1.82 | – | 18.1 | – | 1.94 | – | 1.07 | – | 5.8 | – | 5.4 | – | 7.73 | – | 3.77
C1CC[N-]CC1.CC(=N\O)/C(C)=N/O.CC(=N\O)/C(C)=N/O.OC1[CH-]CCCC1.[Co+2] | 72.7 | > 100 | 31 | > 100 | > 100 | > 100 | 69.1 | > 100 | 61.8 | > 100 | 20.5 | 62.6 | 44.8 | > 100 | 25.5 | 71.1 | > 100 | > 100 | 37.8 | > 100
COC(=O)COc1ccc(/C=C2/N=C(c3ccccc3)N(c3c(C)n(C)n(-c4ccccc4)c3=O)C2=O)cc1 | 26.5 | 70.9 | 67.6 | > 100 | 26.6 | 84.2 | 16.6 | 30.2 | 19.7 | 37 | 23.1 | 69.3 | 12.8 | 30.5 | 16.1 | 30.2 | 17 | 32.3 | 17.1 | 42
C=C1CCC2(C#N)[C@H]3[C@H](CC[C@@H]2C)[C@@H](C)C[C@@H](CC(C)(C)NC(=O)CN2CCC2=O)[C@H]13 (stereo not given in full) | 8.9 | > 100 | 4.27 | 16.6 | 3.36 | 15 | 12.1 | 41.1 | 13.7 | 37.8 | 4.02 | 23.6 | 14.2 | 42.3 | 5.98 | 19.4 | 10.2 | 77.1 | 2.96 | 17.3
